Measurements published in US7993824B2, “Compositions and methods for determining the susceptibility of a pathogenic virus to protease inhibitors” (Monogram Biosciences, Inc., priority 2002, dated 2011).

How the values were obtained:
[1] = system: HIV-1 from the patient sample; experiment: PHENOSENSE HIV phenotypic susceptibility assay on patient plasma samples (IC50 fold change vs NL4-3 reference); assay type: cell-based; conditions: for fold change in IC50: patient sample with L10I, I13V, E35D, M36I, R41K, I50V, L63P, A71V, N88N/S, L90M in HIV protease, vs NL4-3 reference
Description: In a preferred embodiment, the phenotypic analysis is performed using PHENOSENSE™ (ViroLogic Inc., South San Francisco, Calif.). See Petropoulos et al., 2000, Antimicrob. Agents Chemother. 44:920-928; U.S. Pat. Nos. 5,837,464 and 6,242,187. PHENOSENSE™ is a phenotypic assay that achieves the benefits of phenotypic testing and overcomes the drawbacks of previous assays. Because the assay has been automated, PHENOSENSE™ offers higher throughput under controlled conditions. The result is an assay that accurately defines the susceptibility profile of a patient's HIV isolates to all currently available antiretroviral drugs, and delivers results directly to the physician within about 10 to about 15 days of sample receipt. PHENOSENSE™ is accurate and can obtain results with only one round of viral replication, thereby avoiding selection of subpopulations of virus. The results are quantitative, measuring varying degrees of drug susceptibility, and sensitive—the test can be performed on blood specimens with a viral load of about 500 copies/mL and can detect minority populations of some drug-resistant virus at concentrations of 10% or less of total viral population. Furthermore, the results are reproducible and can vary by less than about 1.4-2.5 fold, depending on the drug, in about 95% of the assays performed.
PHENOSENSE™ can be used with nucleic acids from amplified viral gene sequences. As discussed in Section 5.4.1, the sample containing the virus may be a sample from a human or an animal infected with the virus or a sample from a culture of viral cells. In one embodiment, the viral sample comprises a genetically modified laboratory strain.
(§1) A resistance test vector (“RTV”) can then be constructed by incorporating the amplified viral gene sequences into a replication defective viral vector by using any method known in the art of incorporating gene sequences into a vector. In one embodiment, restrictions enzymes and conventional cloning methods are used. See Sambrook et al., 2001, Molecular Cloning: A Laboratory Manual, Cold Spring Harbor Laboratory, 3rd ed., NY; and Ausubel et al., 1989, Current Protocols in Molecular Biology, Greene Publishing Associates and Wiley Interscience, NY. In a preferred embodiment, ApaI and PinAI restriction enzymes are used. Preferably, the replication defective viral vector is the indicator gene viral vector (“IGVV”). In a preferred embodiment, the viral vector contains a means for detecting replication of the RTV. Preferably, the viral vector contains a luciferase expression cassette.
(§2) The assay can be performed by first co-transfecting host cells with RTV DNA and a plasmid that expresses the envelope proteins of another retrovirus, for example, amphotropic murine leukemia virus (MLV). Following transfection, virus particles can be harvested and used to infect fresh target cells. The completion of a single round of viral replication can be detected by the means for detecting replication contained in the vector. In a preferred embodiment, the completion of a single round of viral replication results in the production of luciferase. Serial concentrations of anti-viral agents can be added at either the transfection step or the infection step.
(§3) Susceptibility to the anti-viral agent can be measured by comparing the replication of the vector in the presence and absence of the anti-viral agent. For example, susceptibility to the anti-viral agent can be measured by comparing the luciferase activity in the presence and absence of the anti-viral agent. Susceptible viruses would produce low levels of luciferase activity in the presence of antiviral agents, whereas viruses with reduced susceptibility would produce higher levels of luciferase activity.
The phenotypic assay was conducted using the PHENOSENSE™ (Virologic, South San Francisco, Calif.) HIV assay (Petropoulos et al., 2000, Antimicrob. Agents Chemother. 44:920-928; U.S. Pat. Nos. 5,837,464 and 6,242,187). […]

[2] = system: HIV-1 clones containing I50V; experiment: PhenoSense assay on protease clones (I50V; I50V+L90M; I50V+N88S) isolated from resistance test vector pools of one patient sample; assay type: cell-based; conditions: for mean fold change (FC), reduction in susceptibility: clones with I50V only, or I50V plus L90M
Description: Drug names are abbreviated as follows: APV, amprenavir; IDV, indinavir; LPV, lopinavir; NFV, nelfinavir; RTV, ritonavir; SQV, saquinavir; ATV, atazanavir (BMS 232632).
as §1, §2, §3
Clones from the population were selected so as to isolate some clones with the N88S mutation and some without it. Resistance test vector pools constructed from the original plasma sample (Petropoulos et al., 2000, Antimicrob Agents Chemother 44:920-8) were transformed into E. Coli, and plasmid DNA from individual colonies was screened in the PhenoSense® assay for […].

[3] = system: HIV; conditions: patients using amprenavir as their first PI; as low as; cited from earlier work
[4] = I50V+N88S clones vs I50V clones

Compound: CC(C)(C)NC(=O)[C@@H]1CN(Cc2cccnc2)CCN1C[C@@H](O)C[C@@H](Cc1ccccc1)C(=O)N[C@H]1c2ccccc2C[C@H]1O [indinavir]
- fold change in IC50 [1]: 1.4 fold

Compound: Cc1cccc(C)c1OCC(=O)N[C@@H](Cc1ccccc1)[C@@H](O)C[C@H](Cc1ccccc1)NC(=O)[C@H](C(C)C)N1CCCNC1=O [lopinavir]
- fold change in IC50 [1]: 3.3 fold
- fold decrease in IC50 in the presence of N88S (susceptibility increased) [2, 4]: 1.7 fold
- mean fold change (FC), reduction in susceptibility [2]: 7-9 FC

Compound: CC(C)CN(C[C@@H](O)[C@H](Cc1ccccc1)NC(=O)O[C@H]1CCOC1)S(=O)(=O)c1ccc(N)cc1 [amprenavir]
- 99th percentile for the distribution of FC in genotypically wild-type viruses ([1]; genotypically wild-type viruses, PhenoSense Assay): 2.1 fold
- fold change in IC50 [1]: 4.1 fold
- reductions in susceptibility in patients who experienced viral load rebound [3]: 2-3 fold
- fold change for a virus containing I50V, but not N88S ([2]; FIG. 7 bar 1 for APV): about 17 fold
- fold change when the virus contained N88S in addition to I50V ([2]; FIG. 7 bar 2 for APV, wild type level): 1.2 FC
- factor by which susceptibility was increased when N88S was present in combination with I50V [2, 4]: 14.5
- mean fold change (FC), reduction in susceptibility [2]: 13-17 FC

Compound: CC(C)c1nc(CN(C)C(=O)N[C@H](C(=O)N[C@@H](Cc2ccccc2)C[C@H](O)[C@H](Cc2ccccc2)NC(=O)OCc2cncs2)C(C)C)cs1 [ritonavir]
- fold change in IC50 [1]: 11 fold
- fold decrease in IC50 in the presence of N88S (susceptibility increased) [2, 4]: 1.4 fold
- mean fold change (FC), reduction in susceptibility [2]: 12-20 FC

Compound: CC(C)(C)NC(=O)[C@@H]1C[C@@H]2CCCC[C@@H]2CN1C[C@@H](O)[C@H](Cc1ccccc1)NC(=O)[C@H](CC(N)=O)NC(=O)c1ccc2ccccc2n1 [saquinavir]
- fold change in IC50 [1]: 3.6 fold
- increase in FC with L90M ([2]; I50V plus L90M clones vs I50V only clones): 1.8 fold

Compound: COC(=O)N[C@H](C(=O)N[C@@H](Cc1ccccc1)[C@@H](O)CN(Cc1ccc(-c2ccccn2)cc1)NC(=O)[C@@H](NC(=O)OC)C(C)(C)C)C(C)(C)C [atazanavir]
- fold increase in IC50 in the presence of N88S (susceptibility decreased) [2, 4]: 2.3 fold

Compound: Cc1c(O)cccc1C(=O)N[C@@H](CSc1ccccc1)[C@H](O)CN1C[C@H]2CCCC[C@H]2C[C@H]1C(=O)NC(C)(C)C [nelfinavir]
- fold change in IC50 [1]: 5.3 fold
- fold increase in IC50 in the presence of N88S (susceptibility decreased) [2, 4]: 2.1 fold
- mean fold change (FC), reduction in susceptibility [2]: 7-10 FC
